From patent US20230348418A1, “ISOINDOLINONE COMPOUNDS” (Monte Rosa Therapeutics, Inc., priority 2021, published 2023)
pIC50: −log10 of the molar value.

molecular target: CRBN-DDB1 (Homo sapiens, UniProt Q96SW2); test: HTRF binding of compounds to CRBN; settings: not given
Experimental: Compound activity was monitored in a Homogenous Time-Resolved Fluorescence (HTRF) assay using 1-[5-({2-[2-(2-{[2-(2,6-dioxopiperidin-3-yl)-1,3-dioxo-2,3-dihydro-1H-isoindol-4-yl]oxy}acetamido)ethoxy]ethyl}carbamoyl)pentyl]-3,3-dimethyl-2-[(1E,3E)-5-[(2E)-1,3,3-trimethyl-5-sulfo-2,3-dihydro-1H-indol-2-ylidene]penta-1,3-dien-1-yl]-3H-indol-1-ium-5-sulfonate as a fluorescent probe. […] Compounds were stored in dry, ambient temperatures at 10 mM. A 10-point, 1:3 dilution series was prepared from 10 mM stock concentrations in Echo-compatible LDV plates. 10 nL of each compound dilution series was dispensed into assays wells using an Echo 650 (Labcyte inc. USA). […] The assay was then allowed to incubate for 30 min at ambient temperature after transferring compound. […] Analysis and IC50 values were derived using KNIME analytics (KNIME Zurich) transformation and fitting within Collaborative Drug Discovery (Collaborative Drug Discovery USA). Ki was derived from the geometric mean of the IC50 values using the Cheng-Prustoff transformation.

Chain of CRBN-DDB1 (Q96SW2 whole entry): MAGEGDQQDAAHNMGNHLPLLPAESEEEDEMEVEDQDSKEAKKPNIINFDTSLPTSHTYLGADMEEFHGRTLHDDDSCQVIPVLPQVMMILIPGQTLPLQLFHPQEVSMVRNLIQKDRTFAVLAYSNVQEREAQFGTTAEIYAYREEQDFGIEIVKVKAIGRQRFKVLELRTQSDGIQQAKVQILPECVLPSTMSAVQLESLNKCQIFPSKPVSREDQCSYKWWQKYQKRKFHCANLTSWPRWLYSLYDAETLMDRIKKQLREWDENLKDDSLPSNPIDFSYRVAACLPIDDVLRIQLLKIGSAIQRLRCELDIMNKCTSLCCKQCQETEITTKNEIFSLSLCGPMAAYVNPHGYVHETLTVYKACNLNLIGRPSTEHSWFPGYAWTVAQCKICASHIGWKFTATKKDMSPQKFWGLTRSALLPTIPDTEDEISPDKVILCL
Chain of CRBN-DDB1 (Q16531 whole entry partner): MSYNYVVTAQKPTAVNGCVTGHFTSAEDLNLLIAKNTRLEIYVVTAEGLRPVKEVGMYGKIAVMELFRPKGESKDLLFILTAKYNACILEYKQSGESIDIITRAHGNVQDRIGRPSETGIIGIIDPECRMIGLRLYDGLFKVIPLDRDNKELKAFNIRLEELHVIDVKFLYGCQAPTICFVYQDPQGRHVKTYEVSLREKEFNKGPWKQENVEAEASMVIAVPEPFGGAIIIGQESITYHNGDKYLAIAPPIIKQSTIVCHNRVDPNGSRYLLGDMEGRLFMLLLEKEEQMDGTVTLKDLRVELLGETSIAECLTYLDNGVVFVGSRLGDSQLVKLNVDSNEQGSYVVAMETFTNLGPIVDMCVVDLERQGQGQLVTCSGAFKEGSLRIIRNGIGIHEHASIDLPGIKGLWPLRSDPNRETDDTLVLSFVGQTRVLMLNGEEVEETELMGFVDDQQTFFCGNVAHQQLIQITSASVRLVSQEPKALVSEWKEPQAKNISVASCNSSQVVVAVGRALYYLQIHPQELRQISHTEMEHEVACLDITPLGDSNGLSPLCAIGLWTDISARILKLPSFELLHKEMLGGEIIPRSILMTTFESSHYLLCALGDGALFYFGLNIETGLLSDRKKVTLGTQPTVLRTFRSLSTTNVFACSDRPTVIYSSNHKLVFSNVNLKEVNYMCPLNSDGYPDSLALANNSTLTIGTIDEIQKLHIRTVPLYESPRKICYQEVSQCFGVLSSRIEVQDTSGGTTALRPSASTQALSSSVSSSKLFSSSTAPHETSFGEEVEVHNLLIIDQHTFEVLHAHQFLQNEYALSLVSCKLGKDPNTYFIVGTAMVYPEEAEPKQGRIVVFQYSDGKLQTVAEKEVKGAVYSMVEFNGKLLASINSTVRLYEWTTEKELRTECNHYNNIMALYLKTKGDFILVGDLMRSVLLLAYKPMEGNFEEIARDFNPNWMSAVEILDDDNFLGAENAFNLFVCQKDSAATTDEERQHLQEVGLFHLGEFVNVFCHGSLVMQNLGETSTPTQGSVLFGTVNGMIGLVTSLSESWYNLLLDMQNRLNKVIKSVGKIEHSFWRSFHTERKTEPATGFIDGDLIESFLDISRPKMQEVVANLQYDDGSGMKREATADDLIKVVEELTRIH

SMILES	pIC50
C[C@@H]1CCCN1c1ccc(NC(=O)OCc2ccc3c(c2)C(=O)N(C2CCC(=O)NC2=O)C3)nc1 (some centres unmarked) [Compound 192]	> 7.00
CC(F)(F)c1ccc(F)c(NC(=O)OCc2ccc3c(c2)C(=O)N(C2CCC(=O)NC2=O)C3)c1 (centres unmarked) [Compound 234]	> 7.00
Cc1cc2c(c(NC(=O)OCc3ccc4c(c3)C(=O)N(C3CCC(=O)NC3=O)C4)c1)OCC2 (centres unmarked) [Compound 182]	6.00 to 7.00
CC(C)(C)c1ccc(F)c(NC(=O)OCc2ccc3c(c2)C(=O)N(C2CCC(=O)NC2=O)C3)c1 (centres unmarked) [Compound 235]	6.00 to 7.00
O=C1CCC(N2Cc3ccc(COC(=O)Nc4ccc(C(O)C(F)(F)F)nc4)cc3C2=O)C(=O)N1 (centres unmarked) [Compound 238]	6.00 to 7.00
O=C1CCC(N2Cc3ccc(COC(=O)Nc4cccc(OC(F)(F)F)c4F)cc3C2=O)C(=O)N1 (centres unmarked) [Compound 169]	6.00 to 7.00
O=C1CCC(N2Cc3ccc(COC(=O)NC4CN(c5ccccc5)C4)cc3C2=O)C(=O)N1 (centres unmarked) [Compound 167]	> 7.00
O=C1CCC(N2Cc3ccc(COC(=O)Nc4cccc5c4OCC5)cc3C2=O)C(=O)N1 (centres unmarked) [Compound 173]	6.00 to 7.00
O=C1CCC(N2Cc3ccc(COC(=O)NC4CN(Cc5ccccc5)C4)cc3C2=O)C(=O)N1 (centres unmarked) [Compound 168]	6.00 to 7.00
Cc1cc(F)c(NC(=O)OCc2ccc3c(c2)C(=O)N(C2CCC(=O)NC2=O)C3)cc1C(F)(F)F (centres unmarked) [Compound 233]	6.00 to 7.00
O=C1CCC(N2Cc3ccc(COC(=O)Nc4cc(Cl)cc5c4OCC5)cc3C2=O)C(=O)N1 (centres unmarked) [Compound 189]	> 7.00

same assay, conditions: read-out: HTRF Class (Cereblon binding, HTRF IC50)

pIC50	SMILES
> 7.00	C[C@@H]1CCCN1c1cnc(NC(=O)OCc2ccc3c(c2)C(=O)N(C2CCC(=O)NC2=O)C3)c(F)c1 (stereo partly drawn) [Compound 232, (2-(2,6-dioxopiperidin-3-yl)-3-oxoisoindolin-5-yl)methyl (3-fluoro-5-((R)-2-methylpyrrolidin-1-yl)pyridin-2-yl)carbamate]
> 7.00	CCOc1ccc(F)c(NC(=O)OCc2ccc3c(c2)C(=O)N(C2CCC(=O)NC2=O)C3)c1 (centres unmarked) [Compound 223, (2-(2,6-dioxopiperidin-3-yl)-3-oxoisoindolin-5-yl)methyl (5-ethoxy-2-fluorophenyl)carbamate]
6.00 to 7.00	CC1(c2ccc(NC(=O)OCc3ccc4c(c3)C(=O)N(C3CCC(=O)NC3=O)C4)cc2F)COC1 (centres unmarked) [Compound 240, (2-(2,6-dioxopiperidin-3-yl)-3-oxoisoindolin-5-yl)methyl (3-fluoro-4-(3-methyloxetan-3-yl)phenyl)carbamate]
6.00 to 7.00	O=C1CCC(N2Cc3ccc(COC(=O)Nc4cc(OC(F)F)c(F)cn4)cc3C2=O)C(=O)N1 (centres unmarked) [Compound 227, (2-(2,6-dioxopiperidin-3-yl)-3-oxoisoindolin-5-yl)methyl (4-(difluoromethoxy)-5-fluoropyridin-2-yl)carbamate]
6.00 to 7.00	O=C1CCC(N2Cc3ccc(COC(=O)Nc4ccc(C5CCC5)cc4F)cc3C2=O)C(=O)N1 (centres unmarked) [Compound 164, (2-(2,6-dioxopiperidin-3-yl)-3-oxoisoindolin-5-yl)methyl (4-cyclobutyl-2-fluorophenyl)carbamate]
6.00 to 7.00	O=C1CCC(N2Cc3ccc(COC(=O)NC45CC(C4)C5)cc3C2=O)C(=O)N1 (centres unmarked) [Compound 193, (2-(2,6-dioxopiperidin-3-yl)-3-oxoisoindolin-5-yl)methyl bicyclo[1.1.1]pentan-1-ylcarbamate]
> 7.00	O=C1CCC(N2Cc3ccc(COC(=O)NC45CC(c6ccccc6F)(C4)C5)cc3C2=O)C(=O)N1 (centres unmarked) [Compound 174, (2-(2,6-dioxopiperidin-3-yl)-3-oxoisoindolin-5-yl)methyl (3-(2-fluorophenyl)bicyclo[1.1.1]pentan-1-yl) carbamate]
> 7.00	O=C1CCC(N2Cc3ccc(COC(=O)NC45CC(C(F)F)(C4)C5)cc3C2=O)C(=O)N1 (centres unmarked) [Compound 219, (2-(2,6-dioxopiperidin-3-yl)-3-oxoisoindolin-5-yl)methyl (3-(difluoromethyl)bicyclo[1.1.1]pentan-1-yl) carbamate]
6.00 to 7.00	O=C1CCC(N2Cc3ccc(COC(=O)Nc4cccc(C5CC5)c4)cc3C2=O)C(=O)N1 (centres unmarked) [Compound 216, (2-(2,6-dioxopiperidin-3-yl)-3-oxoisoindolin-5-yl)methyl (3-cyclopropylphenyl)carbamate]
6.00 to 7.00	CC(C)(O)c1ccc(NC(=O)OCc2ccc3c(c2)C(=O)N(C2CCC(=O)NC2=O)C3)cc1 (centres unmarked) [Compound 195, (2-(2,6-dioxopiperidin-3-yl)-3-oxoisoindolin-5-yl)methyl (4-(2-hydroxypropan-2-yl)phenyl)carbamate]
> 7.00	CC(C)Oc1ccc(F)c(NC(=O)OCc2ccc3c(c2)C(=O)N(C2CCC(=O)NC2=O)C3)c1 (centres unmarked) [Compound 221, (2-(2,6-dioxopiperidin-3-yl)-3-oxoisoindolin-5-yl)methyl (2-fluoro-5-isopropoxyphenyl)carbamate]
6.00 to 7.00	CC(C)c1cccc(NC(=O)OCc2ccc3c(c2)C(=O)N(C2CCC(=O)NC2=O)C3)c1 (centres unmarked) [Compound 217, (2-(2,6-dioxopiperidin-3-yl)-3-oxoisoindolin-5-yl)methyl (3-isopropylphenyl)carbamate]
> 7.00	Cc1cc(F)c(NC(=O)OCc2ccc3c(c2)C(=O)N(C2CCC(=O)NC2=O)C3)cc1F (centres unmarked) [Compound 213, (2-(2,6-dioxopiperidin-3-yl)-3-oxoisoindolin-5-yl)methyl (2,5-difluoro-4-methylphenyl)carbamate]
> 7.00	CC1(c2ccc(NC(=O)OCc3ccc4c(c3)C(=O)N(C3CCC(=O)NC3=O)C4)cc2Cl)COC1 (centres unmarked) [Compound 236, (2-(2,6-dioxopiperidin-3-yl)-3-oxoisoindolin-5-yl)methyl (3-chloro-4-(3-methyloxetan-3-yl)phenyl)carbamate]
6.00 to 7.00	Cc1cc(NC(=O)OCc2ccc3c(c2)C(=O)N(C2CCC(=O)NC2=O)C3)ncc1N1CCCC1 (centres unmarked) [Compound 194, (2-(2,6-dioxopiperidin-3-yl)-3-oxoisoindolin-5-yl)methyl (4-methyl-5-(pyrrolidin-1-yl)pyridin-2-yl) carbamate]
6.00 to 7.00	Cc1cc(F)c(NC(=O)OCc2ccc3c(c2)C(=O)N(C2CCC(=O)NC2=O)C3)cc1OC(F)F (centres unmarked) [Compound 201, (2-(2,6-dioxopiperidin-3-yl)-3-oxoisoindolin-5-yl) methyl (5-(difluoromethoxy)-2-fluoro-4-methylphenyl)carbamate]
6.00 to 7.00	CCCOc1ccc(F)c(NC(=O)OCc2ccc3c(c2)C(=O)N(C2CCC(=O)NC2=O)C3)c1 (centres unmarked) [Compound 226, (2-(2,6-dioxopiperidin-3-yl)-3-oxoisoindolin-5-yl)methyl (2-fluoro-5-propoxyphenyl)carbamate]
> 7.00	O=C1CCC(N2Cc3ccc(COC(=O)Nc4cc(F)c5c(c4)CCO5)cc3C2=O)C(=O)N1 (centres unmarked) [Compound 212, (2-(2,6-dioxopiperidin-3-yl)-3-oxoisoindolin-5-yl)methyl (7-fluoro-2,3-dihydrobenzofuran-5-yl)carbamate]
6.00 to 7.00	Cc1ccc(NC(=O)OCc2ccc3c(c2)C(=O)N(C2CCC(=O)NC2=O)C3)nc1Cl (centres unmarked) [Compound 183, (2-(2,6-dioxopiperidin-3-yl)-3-oxoisoindolin-5-yl)methyl (6-chloro-5-methylpyridin-2-yl)carbamate]
6.00 to 7.00	O=C1CCC(N2Cc3ccc(COC(=O)NC45CC(N6CCOCC6)(C4)C5)cc3C2=O)C(=O)N1 (centres unmarked) [Compound 215, (2-(2,6-dioxopiperidin-3-yl)-3-oxoisoindolin-5-yl)methyl (3-morpholinobicyclo[1.1.1]pentan-1-yl)carbamate]
> 7.00	Cc1cc(NC(=O)OCc2ccc3c(c2)C(=O)N(C2CCC(=O)NC2=O)C3)ncc1N1CCC[C@H]1C (stereo partly drawn) [Compound 237, (2-(2,6-dioxopiperidin-3-yl)-3-oxoisoindolin-5-yl)methyl (4-methyl-5-((R)-2-methylpyrrolidin-1-yl)pyridin-2-yl)carbamate]
6.00 to 7.00	CC(C)(O)c1ccc(NC(=O)OCc2ccc3c(c2)C(=O)N(C2CCC(=O)NC2=O)C3)cn1 (centres unmarked) [Compound 199, (2-(2,6-dioxopiperidin-3-yl)-3-oxoisoindolin-5-yl)methyl (6-(2-hydroxypropan-2-yl)pyridin-3-yl)carbamate]
6.00 to 7.00	O=C1CCC(N2Cc3ccc(COC(=O)Nc4ccc(C(O)C(F)(F)F)cc4)cc3C2=O)C(=O)N1 (centres unmarked) [Compound 209, (2-(2,6-dioxopiperidin-3-yl)-3-oxoisoindolin-5-yl)methyl (4-(2,2,2-trifluoro-1-hydroxyethyl)phenyl) carbamate]
> 7.00	O=C1CCC(N2Cc3ccc(COC(=O)NC45C6C7C4C4C5C6C74c4ccccc4)cc3C2=O)C(=O)N1 (centres unmarked) [Compound 225, (2-(2,6-dioxopiperidin-3-yl)-3-oxoisoindolin-5-yl)methyl (4-phenylcuban-1-yl)carbamate]
6.00 to 7.00	O=C1CCC(N2Cc3ccc(COC(=O)NC45CC(CF)(C4)C5)cc3C2=O)C(=O)N1 (centres unmarked) [Compound 202, (2-(2,6-dioxopiperidin-3-yl)-3-oxoisoindolin-5-yl)methyl (3-(fluoromethyl)bicyclo[1.1.1]pentan-1-yl) carbamate]
6.00 to 7.00	O=C1CCC(N2Cc3ccc(COC(=O)Nc4cccc(Cl)c4)cc3C2=O)C(=O)N1 (centres unmarked) [Compound 239, (2-(2,6-dioxopiperidin-3-yl)-3-oxoisoindolin-5-yl)methyl (3-chlorophenyl)carbamate]
6.00 to 7.00	CC(C)(C)[C@H]1C[C@H](NC(=O)OCc2ccc3c(c2)C(=O)N(C2CCC(=O)NC2=O)C3)C1 (stereo partly drawn) [Compound 185, trans-(2-(2,6-dioxopiperidin-3-yl)-3-oxoisoindolin-5-yl)methyl ((1s,3s)-3-(tert-butyl)cyclobutyl)carbamate]
